The record followed here is patent US20260337125A1, “RADIOLABELED TYROSINE DERIVATIVE AND APPLICATION THEREOF” (Osaka University, priority 2022, published 2026).

The target of one data set is HEK293-hLAT1 (Homo sapiens, UniProt Q01650). The experiment in a line: Cellular uptake test (Using HEK293). It counts as cell-based. As for the experimental part:
• Cells to be Used: HEK293-Mock, HEK293-hLAT1, HEK293-hLAT2 (HEK293: Human Embryonic Kidney cells 293) • Culture medium to be used: E-MEM (containing 10% FBS, 1% P/S, 1% NEAA)
(§1) Two days before a test day, a cell suspension was prepared in such a manner that the concentration of predetermined cells was 1×10^5 cells/mL. The cell suspension was seeded in a 24-well multiculture plate at a volume of 0.5 mL per well. On the day of the test, cultures were confirmed to be subconfluent (which refers to a state where 70-80% of the well is covered in density). The cells were washed twice with warmed PBS(-) Buffer (166-23555, FUJIFILM Wako Pure Chemical Corporation), the culture medium was replaced with HBSS(-) Buffer (085-09355, FUJIFILM Wako Pure Chemical Corporation), and the plate was left to stand in an incubator (MINIcell-35, WakenBtech Co., Ltd) until an RI addition test.
(§2) ^211At-AAMT-OMe or ^211At-AAMT was added to the prepared cells at 10 μL/well. BCH (LAT1 inhibitor, 20 mM) or unlabeled AMT (α-methyl tyrosine, 1 μg/mL) was previously (15 minutes before) added ([…]). The cells were cultured (CO2 5%, 37 °C), and after 30 minutes, the liquid was removed by suction using an aspirator. The cells were washed twice with PBS(-). The cells were lysed by adding 0.1N NaOH to obtain a lysate, and the radioactivity of the lysate was measured using a γ counter. After the radioactivity measurement, the lysate was loaded into a 96-well plate at a volume of 10 μL per well, the protein amount was measured by the BCA method, and the number of cells was corrected based on the protein amount. Absorbance was measured by MultiScanFC (Thermo Fisher). The uptake level of ^211At-AAMT-OMe or ^211At-AAMT into the cells (number of radioactivity counts/protein amount) was calculated.

Data set [1] concerns human pancreatic cancer cell line (PANC1). As to the kind of experiment: Imaging of mice subcutaneously transplanted with human pancreatic cancer cell line PANC1. It counts as in vivo, human (PANC1) in Balb/c-nu/nu mice. To be noted: 2 hours after administration, 0.5 MBq/0.2 mL per mouse, tail vein.
Text: Immunodeficient mice (Balb/c-nu/nu, 5-week-old, male) were habituated for 1 week and then subcutaneously transplanted with a human pancreatic cancer cell line (PANC1, 1×10^7 cells/mouse). After the transplantation, the mice were observed over time until tumor reached a size large enough for imaging (about 1000 mm^3). […] Two hours after administration, the mice were anesthetized by isoflurane inhalation, and planar images were taken using a γ camera (E-cam, Siemens).
For a further data set, the system named is PANC1. The experiment in a line: Cellular uptake test (Using PANC1). It counts as cell-based, human. As for the experimental part: • Cells to be used: PANC1 • Culture medium to be used: D-MEM (containing 10% FBS, 1% P/S)
as §1, with “cells/mL in the same manner as in Test Example 1.” for “cells/mL.”
as §2, with “^211At-AAMT-OMe, ^211At-AAMT-OEt, ^211At-AAMT-OPr, or” for “^211At-AAMT-OMe or”, “of ^211At-AAMT-OMe, ^211At-AAMT-OEt, ^211-At-AAMT-OPr,” for “of ^211At-AAMT-OMe”

In data set [2] the test system is CDDP-resistant A549 (A549 CDDP-r). The conditions noted are these: 48 hours, 37 °C, Cell counting kit-8. The method, then:
Two days before experiment, A549 and CDDP-resistant A549 (A549 CDDP-r) were each seeded in a 96-well plate at a concentration of 1×10^5 cells/mL. ^211At-AAMT-OMe or ^211At-AAMT adjusted to a predetermined concentration was added to A549 cells and CDDP-resistant A549 cells, respectively, and the cells were cultured (CO2 5%, 37 °C). After the cultivation for 48 hours, Cell counting kit-8 (DOJINDO LABORATORIES) was added. After the addition, the cells were cultured at 37 °C for 1 hour, and cell viability was measured using absorbance at 450 nm as an indicator.
(In general: Formazan colour is commonly taken as a measure of viable cells.)

The subject of a further data set is A549. The experiment in a line: Therapeutic test on mice subcutaneously transplanted with A549. To be noted: A549 tumor weight 30 days after administration, 0.5 MBq/0.2 mL per mouse, tail vein. It counts as in vivo, human (A549) in Balb/c-nu/nu mice.
Data set [3] deals with CDDP-resistant A549 (A549 CDDP-r). The conditions noted are these: A549 CDDP-r tumor weight 30 days after administration, 0.5 MBq/0.2 mL per mouse, tail vein. As for the experimental part: (§3) Thirty days after administration, the mice were euthanized and tumor masses were isolated. After fat tissue and the like were trimmed off, the wet weights of the isolated tumor masses were measured to make a histogram.

The test system of data set [4] is Gem-resistant PANC1 (PANC1 Gem-r). To be noted: in vivo. The method, then:
as §3

HEK293-hLAT1, sequence (Q01650 whole entry): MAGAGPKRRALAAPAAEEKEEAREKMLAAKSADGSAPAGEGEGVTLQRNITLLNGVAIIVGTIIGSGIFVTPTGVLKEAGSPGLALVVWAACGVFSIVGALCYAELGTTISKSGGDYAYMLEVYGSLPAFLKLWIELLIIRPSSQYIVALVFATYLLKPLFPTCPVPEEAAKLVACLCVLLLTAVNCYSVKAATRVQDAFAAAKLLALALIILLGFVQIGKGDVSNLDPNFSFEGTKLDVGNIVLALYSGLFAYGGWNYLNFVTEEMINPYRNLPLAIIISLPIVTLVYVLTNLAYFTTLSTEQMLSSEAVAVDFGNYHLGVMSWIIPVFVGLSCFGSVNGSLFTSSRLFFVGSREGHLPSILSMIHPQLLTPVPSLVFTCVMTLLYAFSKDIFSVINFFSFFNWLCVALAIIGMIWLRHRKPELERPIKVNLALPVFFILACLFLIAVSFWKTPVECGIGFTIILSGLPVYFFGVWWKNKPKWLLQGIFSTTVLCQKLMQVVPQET
HEK293-hLAT1, sequence (P08195 102-630 partner): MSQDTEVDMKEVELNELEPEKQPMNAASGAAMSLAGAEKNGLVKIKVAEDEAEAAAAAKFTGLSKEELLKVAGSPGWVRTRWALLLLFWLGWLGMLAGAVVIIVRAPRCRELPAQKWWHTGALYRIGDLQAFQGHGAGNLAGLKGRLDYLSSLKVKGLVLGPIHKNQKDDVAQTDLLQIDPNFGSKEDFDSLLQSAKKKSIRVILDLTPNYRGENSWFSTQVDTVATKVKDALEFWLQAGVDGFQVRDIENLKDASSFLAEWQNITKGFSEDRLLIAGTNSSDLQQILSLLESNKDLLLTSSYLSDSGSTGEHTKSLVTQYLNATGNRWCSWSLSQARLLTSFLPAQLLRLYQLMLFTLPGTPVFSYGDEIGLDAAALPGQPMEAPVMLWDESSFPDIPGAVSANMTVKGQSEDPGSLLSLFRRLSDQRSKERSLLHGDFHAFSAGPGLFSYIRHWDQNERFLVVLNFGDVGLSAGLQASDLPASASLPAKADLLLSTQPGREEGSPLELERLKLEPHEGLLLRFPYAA

Regarding `COc1ccc(C[C@](C)(N)C(=O)O)cc1[At]` [^211At-AAMT-OMe, (S)-3-astato(^211At)-O-methyl-α-methyltyrosine], the “uptake level into cells (number of radioactivity counts/protein amount)” value is “strongly taken up into HEK293-hLAT1 cells (CTL), comparable to ^211At-AAMT” at HEK293-hLAT1 (HEK293-hLAT1 cells (CTL), 30 minutes, 37 °C) and “much superior in uptake level to ^211At-AAMT” in the data set on PANC1. In addition, the specificity of uptake result on HEK293-hLAT1 (HEK293-hLAT1 cells, without and with BCH or AMT) is “specifically taken up into HEK293-hLAT1 cells”. Further, the “accumulation in tumor site (planar γ camera image)” value in data set [1] is “accumulated in the tumor sites, with a larger amount of ^211At-AAMT-OMe remaining in the tumor”. In addition, the uptake speed result with PANC1 (PANC1 cells, uptake level immediately after addition) is on record as “much superior also in uptake speed”. For the same compound, in data set [2], the cytotoxicity result is given as “more remarkable cytotoxicity against A549 CDDP-r”. In addition, the anti-tumor effect result in the data set with A549 is listed as “comparable to that of ^211At-AAMT on A549”; in data set [3] it was “higher than that of ^211At-AAMT on CDDP-resistant A549”; in data set [4], “higher on Gem-resistant PANC1 (PANC1 Gem-r) than on PANC1”. In data set [4], the “tumor growth inhibiting effect” value is given as “higher tumor growth inhibiting effect on the gemcitabine-resistant PANC1 cells”.
